# Measured values published in patent US20110009628A1, “Compounds and Compositions for Modulating Lipid Levels and Methods of Preparing Same” (priority 2009, published 2011).
# Where a name gives a salt, the structure may show the parent alone.
# Experiments:
# [1] = tested on: LDLR mRNA expression in HepG2 cells; test: LDLR mRNA expression in HepG2 cells, Compounds 162 and 163, real-time RT-PCR (Example 13); type: cell-based, human; conditions: FIGS. 6A and 6B
# Description: In FIG. 6A HepG2 cells were exposed to Compounds 162 and 163 at the indicated concentrations (x-axis) for 24 h and plotted against normalized LDLR mRNA levels (fold of control in absence of compound). In FIG. 6B, HepG2 cells were treated with 20 μM of each compound for the indicted times (x-axis) and plotted against normalized LDLR mRNA levels (fold of control at 24 h).
# The time- and dose-dependent effects of the enantiomers of Compound 127 (Compounds 162 and 163) on LDLR mRNA expression were examined using quantitative real-time RT-PCR assays (FIGS. 6A and 6B). HepG2 cells were treated with Compound 162 and Compound 163 at indicated concentrations for various times. Total RNA was isolated and […] was used to generate cDNA in a reaction containing random primers and M-MLV at 37° C. for 1 h in a volume of 25 μL. Real-time PCR was performed on the cDNA using MCEP REALPLEX 2 SYSTEM (Eppendorf) and Universal MasterMix (Applied Biosystems). Human LDLR and GAPDH Pre-Developed TaqMan Assay Reagents (Applied Biosystems) were used to assess the levels of mRNA expressions in HepG2. The levels of LDLR mRNA were normalized to that of GAPDH. Each RNA samples was assayed in triplicate. The fold activity was calculated by dividing mRNA abundance in compound treated cells with that of control.
# [2] = tested on: PCSK9 protein expression in HepG2 cells; test: Western blot of PCSK9 protein in HepG2 cells, Compounds 162 and 163; type: cell-based, human; conditions: 20 μM, time-dependent, FIG. 7
# Description: FIG. 7 is a Western blot analysis of LDLR and PCSK9 expression in HepG2 cells. HepG2 cells seeded in 12-well culture plates were cultured in 0.5% FBS MEM overnight. Compounds 162 and 163 at 20 μM were added to cells for the indicated times. Untreated and treated cells were harvested at the same indicated time points. Total cell lysates were isolated and 50 μg per sample was analyzed for LDLR and PCSK9 protein abundance by western blotting. The membrane was reprobed with anti-actin antibody to examine the equal loading of cell lysates.
# Recent studies have identified the liver secreted serine protease PCSK9 (proprotein convertase subtilisin type 9) as a natural inhibitor of LDLR protein expression that degrades hepatic LDLR protein, thus increasing circulating LDL-C levels.
# [3] = tested on: liver LDLR mRNA; test: Liver LDLR mRNA in treated hamsters, quantitative real-time RT-PCR; type: in vivo, hamster; conditions: 100 mg/kg, 2 weeks, 10 animals per group, p<0.001
# Description: (§1) To directly correlate the LDL-C and VLDL-C lowering effects of Compound 162 with its ability to upregulate hepatic LDLR expression and down-regulation of PCSK9, at the end of treatment, animals from vehicle and Compound 162 100 mg/kg treated groups were euthanized and levels of liver LDLR and PCSK9 mRNA were individually assessed by quantitative real-time RT-PCR using hamster specific probes. The results represent mean±SEM of 10 animals per group. The liver expression of LDLR mRNA was increased 1.7-fold over control by Compound 162 treatment (p<0.001). […] Thus, these in vivo data confirmed the in vitro effects of Compound 162 in upregulating LDLR mRNA while inhibiting PCSK9 mRNA expressions.
# [4] = tested on: liver PCSK9 mRNA; test: Liver PCSK9 mRNA in treated hamsters, quantitative real-time RT-PCR; type: in vivo, hamster; conditions: 100 mg/kg, 2 weeks, 10 animals per group
# Description: as §1
smiles,measurement,setting,value
"COc1cc2c(cc1OC)C1Cc3ccc(OC)c(OS(=O)(=O)c4cccc(F)c4)c3CN1CC2 (single isomer, unassigned) [Compound 162, 2,3,10-Trimethoxy-5,6,7,8,13,13a-hexahydroisoquinolino[2,1-b]isoquinolin-9-yl 3-fluorobenzenesulfonate phosphate Salt (Enantiomer having positive optical rotation)]",LDLR mRNA expression,[1],upregulate LDLR mRNA expression
same,"LDLR mRNA expression, comparison of the enantiomers",[1],more active than Compound 163
same,PCSK9 cellular levels,[2],greatly decreased
same,liver expression of LDLR mRNA,[3],1.7 fold over control
same,liver mRNA levels of PCSK9,[4],57 % of vehicle control
